Data on three compounds can be found in patent publication US4427698A, “Use of N,N-dimethyl-N'-p-tolyl-N'-dichlorofluoromethylthio-sulphamide for combating fungi which damage wood” (Bayer Aktiengesellschaft, priority 1978, dated 1984).

One data set deals with rats. As to conditions: Caines, Toxycology and Applied Pharmacology 14, 515 (1969); cited from earlier work.
For data set [1], the system named is male rats. The following applies: comparison substance pentachlorophenol; cited from earlier work.
Data set [2] is described as follows: Solubilities in % by weight. It counts as physicochemical. An excerpt:
Solubilities in % by weight of N,N-dimethyl-N'-p-tolyl-N'-dichlorofluoromethylthio-sulphamide (A) compared with N,N-dimethyl-N'-phenyl-N'-dichlorofluoromethylthio-sulphamide (B) and N-dichlorofluoromethylthio-phthalimide (C).

Data set [3] is described as follows: Cutaneous treatment of male rats. It counts as in vivo, rat. As to conditions: rat, in vivo, topical or ocular, read-out: LD50 cutaneously.
Data set [4] relates to male rats. As to the kind of experiment: Cutaneous treatment of male rats. The class given is in vivo, rat. The following applies: cutaneous treatment.
The nature of data set [5]: cumulative and percutaneous toxic action. It counts as in vivo. The following applies: in contrast to known active compounds, for example pentachlorophenol.
The subject of a further data set is Coriolus versicolor. The data set is described as follows: activity against wood-damaging fungi. It counts as cell-based.
The test system of a further data set is Lentinus tigrinus. As to the kind of experiment: MIC determination in agar (beer wort and peptone). It counts as cell-based. The protocol:
(§1) Determination of the minimum inhibitory concentration (MIC)
(§2) The active compound according to the invention is added, in concentrations of 2 mg/l to 5,000 mg/l, to an agar which is prepared from beer wort and peptone. After storing for 2 weeks at 28° C. and 60-70% relative atmospheric humidity the MIC is determined.

A further data set deals with Coniophora cerebella. The data set is described as follows: MIC determination in agar (beer wort and peptone). It counts as cell-based. The protocol:
as §1, §2

The subject of a further data set is Ceratocystis pini. As to the kind of experiment: MIC determination in agar (beer wort and peptone). It counts as cell-based. As for the experimental part: as §1, §2
Another data set has as its system Chaetomium globosum. As to the kind of experiment: MIC determination in agar (beer wort and peptone). The class given is cell-based. As for the experimental part:
as §1, §2

Data set [6] relates to Ceratocystis coerulenceus. As to the kind of experiment: MIC determination in agar (beer wort and peptone). It counts as cell-based. As for the experimental part:
as §1, §2

A further data set deals with Poria Vaporaria. The data set is described as follows: MIC determination in agar (beer wort and peptone). It counts as cell-based. The protocol: as §1, §2
Data set [7] can be described thus: Peroral toxicity, single administration by probang to male rats. As to conditions: rat, in vivo, po, dissolved in acetone, Probit analysis, read-out: LD50 perorally. As for the experimental part:
The LD50 was calculated by means of Probit analysis (Fink et al, Methods of information in medicin 5, 19, 1966).

In the next data set the test system is Ceratocystis piceae. As to the kind of experiment: activity against wood-damaging fungi. It counts as cell-based.
Where [8] appears, read: Benzine fraction, boiling point 140-190° C.
Setting [9] is: Mixture of aromatic hydrocarbons, boiling point 159-175° C.
Where [10] appears, read: 336 h, 2 weeks at 28° C., 60-70% relative humidity.

Each structure is given as a SMILES string. Converted amounts (≈) assume the structure as drawn.

Take `Oc1c(Cl)c(Cl)c(Cl)c(Cl)c1Cl` [Pentachlorophenol]: the LD50 perorally in the data set on rats is reported as 160 mg/kg of body weight. In the data set on male rats [1], the LD50 cutaneously is 325 mg/kg and the “percutaneous toxic action (in words)” value is “has a toxic action”.

With `CN(C)S(=O)(=O)N(SC(F)(Cl)Cl)c1ccccc1` [B, N,N-dimethyl-N'-phenyl-N'-dichlorofluoromethylthio-sulphamide], the Solubility in [2] (setting [8]) is 1.2 % by weight; in data set [2] (Ethyl acetate), 11 % by weight; in [2] (Methanol), 1.5 % by weight; in data set [2] (setting [9]), 7.5 % by weight; in data set [2] (Xylene), 6.5 % by weight. In addition, in data set [2] (formulating agents customary for wood protection agents), the “solubility (in words)” value was “very poor solubility”.

For the compound `Cc1ccc(N(SC(F)(Cl)Cl)S(=O)(=O)N(C)C)cc1` [A, N,N-dimethyl-N'-p-tolyl-N'-dichlorofluoromethylthio-sulphamide], the results for the LD50 in [3] and in [7] were greater than 500 mg/kg and greater than 2500 mg/kg, respectively. Further, the “percutaneous toxicity compared with the other sulphamide (in words)” value in the data set on male rats [4] is given as “just as low a toxicity”. The “cumulative or percutaneous toxic action (in words)” value in data set [5] was “neither a cumulative nor a percutaneous toxic action”. In addition, the “active against wood-damaging fungi” value (in the data set with Coriolus versicolor; in the data set on Lentinus tigrinus; in the data set on Coniophora cerebella; in the data set with Ceratocystis pini; in the data set on Chaetomium globosum; in [6]) was “active” throughout. For the same compound, the “active against wood-damaging fungi” value in the data set on Poria Vaporaria (Poria vaporaria) and with Ceratocystis piceae was “active” in each case. Further, the MIC was 5 µg/mL (≈ 14.4 µM) with Lentinus tigrinus (setting [10]); 10 µg/mL (≈ 28.8 µM) against Coniophora cerebella (setting [10]); 20 µg/mL (≈ 57.6 µM) against Ceratocystis pini (setting [10]); 10 µg/mL (≈ 28.8 µM) with Chaetomium globosum (setting [10]); 20 µg/mL (≈ 57.6 µM) in [6] (setting [10]); 2 µg/mL (≈ 5.76 µM) in the data set on Poria Vaporaria (336 h, Poria Vaporaria, 2 weeks at 28° C., 60-70% relative humidity). The Solubility in data set [2] (setting [8]) was 2.5 % by weight; in data set [2] (Ethyl acetate) it was 33 % by weight; in data set [2] (Methanol) it was 5 % by weight; in [2] (setting [9]), 20 % by weight; in [2] (Xylene), 29 % by weight. Also, the “solubility (in words)” value in data set [2] (organic solvents) is listed as “very readily soluble”.

The LD50 is the dose at which mortality reaches 50%. In general, MIC refers to the lowest concentration found to suppress growth. Low readings indicate a more susceptible organism, high ones a less susceptible organism.
